Four compounds from patent US20250268919A1, “COMPOUNDS FOR THE TREATMENT OF CANCER” (Amneal Pharmaceuticals LLC, priority 2021, published 2025) can be followed below.

Data set [1] in a line: in vitro. The following applies: human, microsomes, pH 7.4. As to the method: The assay was performed in duplicate.
Supernatant (200 μL) from each reaction tube was taken for LC-MS/MS analysis.

For the next data set, the system named is MCF7 tumor. In words: Anticancer efficacy of compound 121 in nude mice bearing MCF7 tumor. The class given is in vivo. The following applies: 1 mg/mouse (~33.3 mg/kg) subcutaneously; MCF-7 xenograft mice. As for the experimental part: For this purpose, MCF7 cancer cells were procured from ATCC and grown in DMEM Medium supplemented with 10% FBS and 1% penicillin streptomycin. Cells were harvested when they reach 70-80% confluence for tumor implantation. 24 h prior to MCF7 cells implantation, the skin area around the injection site of nude mice were disinfected by mildly swabbing with surgical spirit. […] pellet (0.18 mg/pellet 60-day release, Innovative Research of America) was subcutaneously implanted into in the left flank region of the animals. For cell inoculation, cells were mixed with equal volume of Matrigel in a 1:1 ratio followed by injection of 5×10^6 MCF7 cells subcutaneously on the right flank region using a 1 mL syringe attached to a 24 G needle. On the subsequent days the injection site was monitored for tumor palpability. Tumor grafts were measured within 7-8 days of cell inoculation for tumor palpability. […]
After randomization, treatment was initiated when the average tumor volume reaches −200±50 mm^3. Tumor volume and mouse body weight were measured on the first day of treatment (Day 1) and then three times per week till 28 days as shown in FIG. 4. […]
Tumor volume (mm^3) was calculated using the formula, tumor length×(tumor width)2/2. Tumor growth inhibition will be calculated after normalizing the values to that on day 1. % TGI was calculated based on the formula below.

Data set [2] is described as follows: Pharmacokinetic study in monkey, single oral dose. The class given is in vivo. The following applies: 50 mg/kg single oral; Cynomolgus monkey; plasma. As to the method:
The objective of the study was to evaluate pharmacokinetic exposure of compound 121 after per oral dosing at 25 mg/kg dose and Fulvestrant after per oral dosing at 50 mg/kg dose in Cynomolgus monkey. The study was performed in overnight fasted Cynomolgus monkeys.
Blood samples were collected at each time points like 0 h (pre-dose) and 0.25, 0.5, 1, 2, 4, 8, 12, 24, 36 and 48 h post-dose via the cephalic or saphenous veins into polyethylene microcentrifuge tubes containing potassium (K2) EDTA. There were total 11 time points, n=1 monkey. All blood samples were mixed well by inversion and placed on wet ice until processed for plasma. Blood samples were centrifuged at 2˜8° C. for 10 min at 3000 g to collect plasma. Plasma samples of approximately […] at each time point were used for the bioanalysis. The plasma samples were stored frozen in a freezer set to maintain −60° C. to −70° C. until LC/MS/MS analysis.
Bioanalysis was performed using fit-for-purpose LC-MS/MS method for the quantification of compound 121 or Fulvestrant in plasma samples. The calibration curve was prepared in stabilized blank monkey plasma over 1-1000 ng/mL range for compound 121 and 1-3000 ng/mL range for Fulvestrant. Samples were cleaned up using the protein precipitation technique and analysed by LC-MS/MS.
The plasma pharmacokinetic parameters were calculated using standard non-compartmental analysis (using linear trapezoidal method with linear interpolation.)

The next data set has as its system CACO-2 cell line. The settings on record: standard compounds at 5 μM; apical to basolateral.
Data set [3] in a line: in vitro. The settings on record: human, Caco-2.

Broadly, the half-life is the time in which the quantity being followed falls by half. Low values mean fast loss, high ones slow loss. Turning to `CC(=O)N1CCN(c2ccc(OCC3COC(Cn4ccnc4)(c4ccc(Cl)cc4Cl)O3)cc2)CC1` (stereo not drawn) [Ketoconazole], in “in vitro [1]”, the half-life is > 2 h.
Take `C[C@]12CC[C@@H]3c4ccc(O)cc4C[C@@H](CCCCCCCCC[S+]([O-])CCCC(F)(F)C(F)(F)F)[C@H]3[C@@H]1CC[C@@H]2O` (stereo partly drawn) [Fulvestrant]: the “% Tumor Growth Inhibition (% TGI) on day 28” value in the data set on MCF7 tumor was determined as 101%. Further, in data set [2], the “AUC % Extrap” value was “Inestimable”, the AUC_0-t entry is on record as “Inestimable”, the “AUC_0-∞” value is “Inestimable” and the Cmax result is reported as “Inestimable”. Also, in data set [2], the Tmax result is recorded as “Inestimable”.
As for `CC(C)NCC(O)COc1cccc2ccccc12` (stereo not drawn) [Propranolol], the A-B permeability with CACO-2 cell line came to 62.15 ×10⁻⁶ cm/s.
For orientation: efflux ratio means the permeability from basolateral to apical divided by that in the opposite direction, in the common usage. Take `C[C@H]1O[C@@H](O[C@H]2[C@@H](O)C[C@H](O[C@H]3[C@@H](O)C[C@H](O[C@H]4CC[C@@]5(C)[C@H](CC[C@@H]6[C@@H]5C[C@@H](O)[C@]5(C)[C@@H](C7=CC(=O)OC7)CC[C@]65O)C4)O[C@@H]3C)O[C@@H]2C)C[C@H](O)[C@@H]1O` [Digoxin]: in “in vitro [3]”, the efflux ratio at 5 μM amounted to 19.7.
